The melting point is the temperature of the solid-liquid transition.

Structures are written as SMILES.

In the case of `CNC[C@H]1CC[C@H](c2nc3ccccc3[nH]2)CC1`, the melting point was 232 to 235 °C.

In turn, `O=C1N[C@H](C(=O)NCCO[N+](=O)[O-])[C@@H](c2ccccc2)O1` gave a melting point of 122 to 124 °C.

As for `CCOC(=O)c1c(C)nc(-c2ccccc2)nc1-c1cc([N+](=O)[O-])ccc1S(C)=O` (stereo not given), the melting point is 130 to 132 °C. The result for `CC1(C)CC(=O)c2c(C(=O)O)c[nH]c2C1` reads 231 to 232 °C; that for `CCOC(=O)C(C(=O)OCC)[C@H](C[N+](=O)[O-])c1ccccc1`, 45 to 47 °C. Take `CC(C)(O)C(O)(C(F)(F)F)C(F)(F)F`: the melting point came to 48 °C. Then `COc1ccc(-c2sc(N)c(C(=O)c3ccc(Cl)cc3)c2CN(C2CCCCC2)C2CCCCC2)cc1`, with 178 to 182 °C. In the case of `COC(=O)CCCNC(=O)C(COS(C)(=O)=O)NS(=O)(=O)c1ccc(Cl)cc1` (racemic), the melting point was in the range of 95 to 99 °C. Then `Cc1ccc(-c2cc(F)c3c(c2)CC(CN)O3)cc1` (stereo not given), with more than 250 °C; and `Cc1cc(OCc2cnc(-c3cccc(C(F)(F)F)c3)nc2C2CC2)ccc1OC(C)(C)C(=O)O`, with 175 to 176 °C; and `O=c1[nH]c2ccccc2n1Cc1cccnc1`, with 160 °C.

Regarding `CC(C)c1ccc2ncn(/C=C/C(=O)O)c(=O)c2c1`, the melting point fell in the range of 242 to 243 °C. `O=C(Cn1nnnc1-c1ccsc1)OCCO`: the melting point lay within 103 to 106 °C.

`Cc1nc(NCC(C)C)sc1C(=O)c1ccc(Cl)c([N+](=O)[O-])c1`: the melting point was 138 to 142 °C. The result for `CCN1c2ncc(COc3ccccc3)cc2C(=O)N(C)c2ccc(Cl)nc21` reads 140 to 141 °C. The result for `CCC1=C(C)C(=O)NC1=CBr` reads 250 to 251 °C; that for `O=C(O)CSCCCCc1cccc2cncn12`, 124 to 126 °C; that for `OCCCNc1ccc2ncnn2n1`, 193 to 194 °C. Then `CC(Cn1ncnn1)n1nnc2cc3c(=O)n(Cc4cccnc4)nnc3cc2c1=O` (stereo not given), with 200 °C. Take `CC(Nc1nc(N)nc(C(F)(F)F)n1)c1ccc(Cl)cc1` (stereo not given): the melting point stood at 99 °C.

`CC(C)(C)OC(=O)N1CCN(c2nc(N)c3nc(-c4ccccc4)c(N)nc3n2)CC1` returned a melting point of 240 to 242 °C. Then `CCCC(=O)c1ccc(C(CCC)CC(=O)Nc2cc(C(N)=O)ccc2C(C)(C)C)c(OC)c1` (stereo not given), with 193 to 194 °C; and `C[C@H]1CC[C@H]2C(C)(C)C(=NN3CCOCC3)CC[C@]23Oc2c(c(O)cc4c2CNC4=O)C[C@]13C`, with 202 to 205 °C.

Molecule `O=Cc1c2ccccc2cc2cc(Cl)ccc12` returned a melting point of 122 to 124 °C. Then `O=C1c2ccccc2C(=O)N1Cc1cc2cc(Cl)cc(Br)c2o1`, with 194 to 198 °C. The result for `Cc1oc(-c2ccccc2)nc1COc1ccc2c(-c3ccccc3)c(COc3nn(-c4ccccc4)cc3C(=O)O)oc2c1` reads 200 to 201 °C; that for `COc1ccc(CN2CC(C(=O)O)CC2=O)cc1OC` (stereo not given), 176 to 178 °C; that for `CC12CCC3C(CC=C4NC(=O)CCC43C)C1CC=C2I` (stereo not given), 227 to 230 °C. Turning to `S=C=NCCCN1CCC(c2ccccc2)CC1`, the melting point is 50 to 55 °C.

As to `COc1nccc(C)c1NC(=O)c1cc(C)nc2c1c(C)nn2-c1ccccc1`, the melting point lay within 172 to 174 °C.

As for `CCc1cc(C#N)cc(C(=O)Nc2ccn(C)n2)n1`, the melting point was 164 °C. The result for `CC(C)CC(=O)N[C@@H](Cc1ccccc1)C(=O)CSCc1ccco1` reads 94 to 95 °C; that for `CCC=Cc1nc2ccccc2n1Cc1ccc(C(=O)O)cc1`, 210 °C. Regarding `COC(=O)c1ccc(C(=O)c2ccc(C(=O)OC)cc2)cc1`, the melting point was 228 to 230 °C. `CC(=O)OCC(C)(C)c1ccc(S(N)(=O)=O)cc1` yielded a melting point of 156 to 158 °C. The result for `O=C(O)Cc1ccc(NC(=O)C(Cn2ccnc2)NS(=O)(=O)c2ccc(F)cc2)cc1` (racemic) reads 162 to 165 °C; that for `COc1ccc(-c2nc(C(C)C)sc2-c2ccc(OC)cc2)cc1`, 61 to 65 °C; that for `CC(=S)NCC1CN(c2ccc3c(c2)CC(C(C)(C)C)N3C=O)C(=O)O1` (stereo not given), 219 to 221 °C. Turning to `Cc1cc(C#C[Si](C)(C)C)ccc1-n1c(C(F)(F)F)nn(C)c1=S`, the melting point was in the range of 90 to 93 °C. `COc1ncccc1C(=O)NCC1CCN(C[C@H]2COc3ccc(Cl)cc3O2)CC1` showed a melting point of 72 to 75 °C.

`O=[N+]([O-])c1cc(C2OCCCO2)ccc1O` yielded a melting point of 70 to 71 °C. Then `COC(C)=CC(=O)Nc1cccc(SC)c1`, with 70 to 71 °C; and `COc1ccc2c(c1)CCC(c1ccccc1)=C2c1ccc(O)cc1`, with 158 to 162 °C. `CCCc1c(OC2CCCOC2)ccc2c(O)cc(=O)oc12` (stereo not given) displayed a melting point of 163 to 165 °C. For the molecule `COc1ccc(N)nc1C`, the melting point lay in the range of 98 to 100 °C. For `CN(C)S(=O)(=O)OCCOc1ccc(Cl)cc1`, the melting point is 54 to 57 °C.

Consider `CC(C)NC(=O)CN1CCN(c2nnc(N)[nH]2)CC1`, for which the melting point was 225 to 226 °C. In the case of `O=C1CCC(c2ccc(NC(=O)CCN3CCC(c4ccccc4)CC3)cc2)=NN1`, the melting point was in the range of 238 to 240 °C. The result for `CC(C)(C)C(=O)OCn1cnc2ccc(CBr)cc2c1=O` reads 104 to 114 °C; that for `Cc1cccc2nc(CSc3ncnc4[nH]cnc34)n(-c3ccccc3F)c(=O)c12`, 152 °C.

Molecule `CCOC(=O)c1cnc2c(N=C3C(=O)OC(C)(C)OC3=O)cccc2c1` registered a melting point of 228 to 231 °C. The result for `Cc1nc(N2CCN(Cc3cccc4cccnc34)C2=O)sc1C(=O)NCc1cccnc1` reads 225 to 228 °C; that for `O=C(O)c1ccc(C#Cc2ccccc2)cc1`, 224 to 225 °C. `N#CC1=C(c2ccco2)Nc2n[nH]cc2C1c1cccc2nonc12` (stereo not given): the melting point stood at 237 °C. Then `CC1=NN(C)C(=O)C1(Br)C(=O)c1ccc(Cl)cc1Cl` (stereo not given), with 89 to 90 °C; and `COc1ccc(OC)c2c1CCC(Nc1ccc(O)cc1)C2` (stereo not given), with 188 to 189 °C. The result for `C=CCOc1cc(CC(C#N)=CNc2ccccc2)cc(OCC=C)c1NC(C)=O` reads 176 to 178 °C; that for `N=c1cc(NC(=S)Nc2ccccc2)nc2n1CCCS2`, 157 to 158 °C.

Consider `Nc1ccnc(SCc2ccccn2)n1`, for which the melting point lay within 133 to 134 °C. In turn, `NNC(=O)Cc1cc(C(=O)c2ccc(Br)cc2)sc1-c1ccccc1` returned a melting point of 157 to 161 °C. Then `CCC1=CC(=O)C2(C)CCC3c4ccc(OC)cc4CCC3C12` (stereo not given), with 103 to 106 °C; and `CN(O)C(=O)Cc1ccccc1Nc1c(Cl)cccc1Cl`, with 135 to 138 °C. Then `O=c1oc(-c2cc(C(F)(F)F)cc(C(F)(F)F)c2)cc(O)c1SCc1ccccc1`, with 80 to 82 °C; and `CCCc1c(OCCCSc2ccc(C(=O)OC)cn2)ccc(C(C)=O)c1O`, with 66 to 68 °C; and `CCCCCCCCCCCCCC(CP(c1ccccc1)c1ccccc1)C(C)CP(c1ccccc1)c1ccccc1` (stereo not given), with 105 to 106 °C.

For the origin of these results see a melting point compilation (Tetko et al.; mined from patent text by program, amines drawn as free bases though some values may be those of a salt).
